According to patent publication US6291488A, “Preventing protozoal infections” (Glaxo Wellcome Inc., priority 1992, dated 2001):
“And” between values parts separate entries of the source, which are not always exact repeats. Equal entries are not always repeated.

Experiments:
[1] = tested on: P. falciparum W-2 (multi-drug resistant W-2 clone); assay: In vitro drug combination sensitivity (Desjardins hypoxanthine incorporation), W-2 clone; type: cell-based; conditions: drug combined with compound of Example 1, positive = synergistic, negative = antagonism, 0 = additive
Description: (§1) Antimalarial activity in this system is assessed by inhibition of radiolabelled hypoxanthine incorporation into parasites by graded concentrations of drugs.
(§2) The drugs tested and their solvents are listed below:
(§3) In order to study drug combinations, drug solutions at starting concentrations were combined in various ratios and 1:5,1:2,2:1 and 5:1). […] Serial 1:3 dilutions of the drugs with media were made to fill the 96-well microtitre plate using a 12-channel pipetter. To evaluate drugs classified as dihydrofolic acid reductase (DHFR) inhibitors, modified culture medium was used which contained only physiologic concentrations of folic acid and PABA.
(§4) Individual IC50 s were calculated using the "MINSQ" program from Micromath Scientific Software. Each set of paired data was fitted to the hyperbolic tangent function used by Desjardins.
(§5) An isobologram was constructed by fitting the data to the equation:
(§6) Y1-[Xi /(Xi +e^I *(1-Xi))]
(§7) I=interaction parameter indicating degree of reversal
Positive values of I indicated a synergistic combination, negative values indicated antagonism and I=O indicated additive interaction. […]

[2] = tested on: P. falciparum D-6 (drug-sensitive but melfloquine resistant D-6 clone); assay: In vitro drug combination sensitivity (Desjardins hypoxanthine incorporation), D-6 clone; type: cell-based; conditions: drug combined with compound of Example 1, positive = synergistic, negative = antagonism, 0 = additive
Description: as §1, §2, §3, §4, §5, §6, §7
(§8) Positive values of I indicated a synergistic combination, negative values indicated antagonism and I=O indicated additive interaction.
(§9) The optimum ratio of the combination with proguanil was estimated for each of the three strains of malaria parasite by determining the ratio of the IC50 of proguanil to the IC50 of the compound of Formula (II).

[3] = tested on: P. falciparum C2B (isolate resistant to the compound of example 1); type: cell-based; conditions: drug combined with compound of Example 1, positive = synergistic, negative = antagonism, 0 = additive
Description: as §1, §2, §3, §4, §5, §6, §7, §8, §9

T. gondii C56 strain = assay: Anti-Toxoplasma activity in vivo, mouse model of T. gondii; set-up: species or system T. gondii; CBA/CA mice; conditions: oral gavage; for Mean Time to Death: 10 days
Text: Comparison of anti-Toxoplasma activities in vivo of compound of Example 1, proguanil and combinations thereof
Activities of the compounds and combinations were examined in a mouse model of T. gondii, using the increase in time to death and percent survival of the mice as measures of drug activity.
Groups of 10, 20 gm CBA/CA mice were infected orally by gavage with 6 cysts of the C56 strain of T. gondii and drug treatment was started 3 days later and continued for 10 day. All drugs were administered orally by gavage. The following groups were examined:
All animals were examined twice daily for 30 days and all deaths recorded.

Pneumocystis = assay: Anti-Pneumocystis activity in vivo, scid mouse model of Pneumocystis pneumonia; set-up: species or system P. carinii; scid mice; key to Mean Score ±SE: score 0 = no infection, +4 = very heavy infection; conditions: for number of mice with SCORE 0: 0 = no infection; for % of Control: mean score
Description: Comparison of anti-Pneumocystis activities in vivo of compound of Example 1 proguanil and combinations thereof
Activities of the compounds and combinations were examined in a scid mouse model of Pneumocystis pneumonia.
The level of infection of mice in each group was measured using standard lung impression smears and immunofluorescence tests. A score was assigned to each mouse where 0=no infection and +4=very heavy infection.

[4] = 25 mg/kg p.o. daily, +4 = very heavy infection

COc1cc(NC(C)CCCN)c2ncccc2c1 (centres unmarked) [Primaquine]
I (interaction parameter) [1]: -0.79

CC(C)NC(=N)NC(=N)NOCCCOc1cc(Cl)c(Cl)cc1Cl [PS-15]
I (interaction parameter) [2]: -0.74

Cc1cc(NS(=O)(=O)c2ccc(N)cc2)no1 [Sulfamethoxazole]
I (interaction parameter) [1]: 2.75

C[C@H]1[C@H](OC(=O)CCC(=O)O)O[C@@H]2O[C@@]3(C)CC[C@H]4[C@H](C)CC[C@@H]1[C@@]24OO3 [Artesunic acid]
I (interaction parameter) [2]: -0.18

CC1(C)N=C(N)N=C(N)N1c1ccc(Cl)cc1 [Cycloguanil]
I (interaction parameter) [1]: 2.21 | I (interaction parameter) [2]: 1.66

COc1cc(Cc2cnc(N)nc2N)cc(OC)c1OC [Trimethoprim]
I (interaction parameter) [1]: 1.27 | I (interaction parameter) [3]: 0.58

CCN(CC)CCCC(C)Nc1ccnc2cc(Cl)ccc12 (centres unmarked) [Chloroquine]
I (interaction parameter) [1]: -1.84 | I (interaction parameter) [2]: -1.40

Oc1ncnc2[nH]ncc12 [Allopurinol]
I (interaction parameter) [1]: 1.14 | I (interaction parameter) [2]: 0.43

OC(c1cc(C(F)(F)F)nc2c(C(F)(F)F)cccc12)C1CCCCN1 (centres unmarked) [Mefloquine]
I (interaction parameter) [1]: -1.19

Nc1ccc(S(=O)(=O)c2ccc(N)cc2)cc1 [Dapsone]
I (interaction parameter) [1]: -0.39

CN(C)C1C(=O)C(C(N)=O)=C(O)C2(O)C(=O)C3=C(O)c4c(O)cccc4C(C)(O)C3CC12 (centres unmarked) [Tetracycline]
I (interaction parameter) [1]: 1.27 | I (interaction parameter) [2]: 1.11

O=C1C(O)=C([C@H]2CC[C@H](c3ccc(Cl)cc3)CC2)C(=O)c2ccccc21 [Atovaquone, 2-[4-(4-chlorophenyl)cyclohexyl]-3-hydroxy-1,4-naphthoquinone]
percent survival (T. gondii C56 strain; 10 mg/kg): 10% | Mean Time to Death (T. gondii C56 strain; 10 mg/kg): 20.1 days | percent survival (T. gondii C56 strain; 25 mg/kg): 10% | Mean Time to Death (T. gondii C56 strain; 25 mg/kg): 24.1 days | Mean Score ±SE (Pneumocystis; 25 mg/kg p.o. daily): 3.10 ± 0.17 | No. Infected/No. Examined (Pneumocystis; 25 mg/kg p.o. daily): 10/10 | number of mice with SCORE +1 (Pneumocystis; 25 mg/kg p.o. daily): 0 | number of mice with SCORE +3 (Pneumocystis; 25 mg/kg p.o. daily): 1 | number of mice with SCORE +4 (Pneumocystis; 25 mg/kg p.o. daily): 7 | number of mice with SCORE 0 (Pneumocystis; 25 mg/kg p.o. daily): 0 | number of mice with SCORE +4 (Pneumocystis; [4]): 2 | Mean Score ±SE (Pneumocystis; 50 mg/kg p.o. daily): 2.50 ± 0.16 | No. Infected/No. Examined (Pneumocystis; 50 mg/kg p.o. daily): 10/10 | number of mice with SCORE +1 (Pneumocystis; 50 mg/kg p.o. daily): 0 | number of mice with SCORE +3 (Pneumocystis; 50 mg/kg p.o. daily): 5 | number of mice with SCORE +4 (Pneumocystis; 50 mg/kg p.o. daily): 5 | number of mice with SCORE 0 (Pneumocystis; 50 mg/kg p.o. daily): 0 | number of mice with SCORE +4 (Pneumocystis; 50 mg/kg p.o. daily, +4 = very heavy infection): 0 | infection score (in words) (Pneumocystis; dosed alone): reductions in the infection score | % of Control (Pneumocystis; 25 mg/kg p.o. daily): 84% | % of Control (Pneumocystis; 50 mg/kg p.o. daily): 68%

CC1(C)N=C(N)N=C(N)N1OCCCOc1cc(Cl)c(Cl)cc1Cl [WR99210]
I (interaction parameter) [1]: 0.02

[H]/N=C(\N/C(=N/[H])Nc1ccc(Cl)cc1)NC(C)C [Proguanil]
I (interaction parameter) [3]: 2.56 | survivors (T. gondii C56 strain; 25 mg/kg): no survivors | toxicity to mice (T. gondii C56 strain; 25 mg/kg): exhibits signs of toxicity | Mean Time to Death (T. gondii C56 strain; 25 mg/kg): 9.0 days and 9 days | I (interaction parameter) [2]: 2.56 | Mean Score ±SE (Pneumocystis; 25 mg/kg p.o. daily): 3.80 ± 0.13 | No. Infected/No. Examined (Pneumocystis; 25 mg/kg p.o. daily): 10/10 | number of mice with SCORE +1 (Pneumocystis; 25 mg/kg p.o. daily): 0 | number of mice with SCORE +3 (Pneumocystis; 25 mg/kg p.o. daily): 0 | number of mice with SCORE +4 (Pneumocystis; 25 mg/kg p.o. daily): 2 | number of mice with SCORE 0 (Pneumocystis; 25 mg/kg p.o. daily): 0 | number of mice with SCORE +4 (Pneumocystis; [4]): 8 | prophylaxis of PCP in the scid mouse (Pneumocystis; alone at 25 mg/kg/day): ineffective | % of Control (Pneumocystis; 25 mg/kg p.o. daily): 85%

CCn1cc(C(=O)O)c(=O)c2cc(F)c(N3CCNCC3)cc21 [Norfloxacin]
I (interaction parameter) [1]: 1.02

CCc1nc(N)nc(N)c1-c1ccc(Cl)cc1 [Pyrimethamine]
I (interaction parameter) [1]: 0.36 | I (interaction parameter) [3]: -0.48

Cc1nc(C)c(Cl)c(O)c1Cl [Clopidol]
I (interaction parameter) [2]: 0.73
